PubChem BioAssay (NCI)
Several values for one entry are separate records, joined by “and”; a condition that tells them apart may be missing. Identical values can stand only once.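 Each compound was tested at five concentrations against cells in 96-well plates for 48 hours. GI50 marks 50% less growth. TGI: concentration producing complete growth inhibition.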

What was measured:
Assay in all cases: NCI tumour cell line growth inhibition, 48 h
[1] = test system: MDA-N
[2] = test system: SNB-78 CNS
[3] = test system: DLD-1 colon
[4] = test system: M19-MEL melanoma
[5] = test system: KM20L2 colon
[6] = test system: RXF-631 renal
[7] = test system: DMS 114 small cell lung
[8] = test system: LXFL 529 NSCLC
[9] = test system: XF 498 CNS
[10] = test system: P388/ADR leukemia
[11] = test system: P388 leukemia

SMILES	TGI [1]	TGI [2]	TGI [3] [µM]	TGI [4] [µM]	TGI [5] [µM]	TGI [6] [µM]	TGI [7] [µM]	TGI [8] [µM]	TGI [9]	further results
Cc1cn(C2CC(OC(=O)c3ccc(Cl)cc3)C(COC(=O)c3ccc(Cl)cc3)O2)c(=O)[nH]c1=O (configuration not stated)	> 100 µM									
O=S(=O)(C1=CC(S(=O)(=O)c2ccccc2)CN(Cc2ccccc2)C1c1cccc2ccccc12)c1ccccc1 (configuration not stated)		> 69 µM	> 69	> 69	> 69	> 69	> 69			
Cc1ccc(C)c(NC(=O)CC2Sc3ccccc3NC2=O)c1 (configuration not stated)	> 100 µM	28.9 µM and 61.1 µM	> 100	> 100	> 100		> 100	> 100	22.7 µM and > 100 µM	GI50 [1]: 22.1 µM and > 65.6 µM; GI50 [3]: > 93.6 µM; GI50 [4]: 37 µM and > 100 µM; GI50 [8]: 23 µM and 99 µM; GI50 [9]: 13.7 µM and 29.1 µM
O=C(NC(=O)c1c(F)cccc1F)Nc1cccc(Oc2ncc(Cl)cn2)c1	> 22.7 µM	> 100 µM	> 100	> 100		> 100	> 100	> 100	69 µM	
COCCOC(=O)C1=C(O)c2ccccc2S(=O)(=O)N1C	> 100 µM									
N[C@H](C(=O)O)[C@@H]1CC(Cl)=NO1	> 1000 µM	> 978 µM	> 1000		> 1000		258		250 µM	GI50 [1]: 57.2 µM; TGI [10]: 16.7 µM; TGI [11]: 16 µM
CC(C)(C)c1cc([N+](=O)[O-])cc([N+](=O)[O-])c1O	> 10 µM									
Cc1ccc(S(=O)(=O)N/N=C2\CCCCC23CCC(=O)NC3)cc1 (configuration not stated)		> 100 µM	> 100	> 100	> 100	> 100	> 100	> 100		
O=C(Nc1ccc(C(F)(F)F)cc1[N+](=O)[O-])C(=O)C1NC(=S)NC1=O (configuration not stated)		> 100 µM	> 100	> 100	> 100	> 100	> 100	> 100		
COc1ccc(NC(=O)CC/C(CC(=O)c2ccco2)=N/NC(=O)C(N)=O)cc1			> 100	> 100	> 100		> 100	> 100	> 100 µM	
CCN1CCCc2cc3c(C(F)(F)F)cc(=O)oc3cc21	> 100 µM									
CC(=O)Oc1c(C)c(-c2ccccc2)c(C)c(-c2ccccc2)c1C(=S)c1ccccc1		> 100 µM	> 100	> 100	> 100	> 100		> 100		
COc1ccc([C@@]2(O)c3c(ccc(O)c3OC)[C@H]2OC)c(OC)c1			> 100	> 100	> 100		75.9	> 100	> 100 µM	
C=C(C)C1CC2(C)C(C)CC(O)CC2C(OC(=O)C=C(C)C)C1O (configuration not stated)	> 100 µM									
Cc1cc(N(CC(C)Br)CC(C)Br)ccc1N=Nc1ccccc1C(=O)O (configuration not stated)	20.5 µM	40.2 µM	16.6	29	24.2		11.1		4.62 µM	
CNC(=O)OCc1c(COC(=O)NC)c(-c2ccc(-c3ccccc3)cc2)n(C)c1C	18.5 µM									
COc1cc(NS(=O)(=O)c2ccc(C)cc2)c2nccnc2c1			> 100	55	> 100		40.8	> 100	> 100 µM	
NCCCNCCS	> 100 µM	> 100 µM			> 100	> 100		> 100	> 100 µM	
O=C1C=C(Nc2ccccc2C(=O)CC(=O)C(=O)Nc2cccc([N+](=O)[O-])c2)c2ccccc2C1=O		> 100 µM	> 100	19.3	> 100	> 100	84.9	> 100	53.8 µM	
CCCC1(CC(=O)O)OCCc2c1[nH]c1ccccc21 (configuration not stated)		> 100 µM	> 100	> 100	> 100		> 100	> 100	> 100 µM	
COC(=O)C(=O)CC(=O)CCn1[nH]c(=O)c(Cl)c(Cl)c1=O		> 100 µM	> 100	> 100	> 100		> 100	> 100	> 100 µM	

SMILES	TGI [1]	TGI [2]	TGI [3] [µM]	TGI [4] [µM]	TGI [5] [µM]	TGI [6] [µM]	TGI [7] [µM]	TGI [8] [µM]	TGI [9]	further results
Cc1ccc(S(=O)(=O)N=Nc2c(O)[nH]c3cc(O)c(C(=O)O)cc23)cc1	> 100 µM									
O=NNc1ccc2ccccc2n1	> 100 µM									
O=C1C(=O)c2ccccc2C(O)=C1C(C1=C(O)c2ccccc2C(=O)C1=O)c1ccc(Cl)cc1	3.74 µM									
Cc1ccc(S(=O)(=O)OC2CC=CC2)cc1		> 100 µM	> 100	> 100	> 100		> 100	> 100	> 100 µM	
O=C1N/C(=C\[N+](=O)[O-])c2ccccc21		> 100 µM	> 100	> 100	> 100	> 100	> 100	> 100		
CC1(O)C(C)(O)C2(C)O[Te]3(OC12C)OC1(C)C(C)(O)C(C)(O)C1(C)O3 (configuration not stated)		> 100 µM	> 100	70.8		> 100	54.4	31.4	> 100 µM	
Nc1ncnc2c1ncn2C1C=C(CO)C(O)C1O (configuration not stated)	> 100 µM	> 100 µM	> 100	> 100	> 100	30	69.2	> 100	> 100 µM	
O=C(O)CSCCc1ccccc1	> 100 µM									
CCCCCCCCCCCCCCCCCCOC[C@H](COP(=O)(O)O[C@H]1[C@H](O)[C@@H](O)[C@H](O)C[C@H]1O)OC	> 100 µM and 25.4 µM									GI50 [1]: 64.1 µM and 12 µM
CCOC(=O)[CH-]C(=O)C12CC3CC(CC(C3)C1)C2.CCOC(=O)[CH-]C(=O)C12CC3CC(CC(C3)C1)C2.CC[O-].CC[O-].[Ti+4]		> 100 µM	> 100	> 100	> 100	> 100	> 100	> 100		GI50 [2]: > 100 µM; GI50 [3]: > 100 µM; GI50 [4]: > 100 µM; GI50 [8]: > 100 µM; GI50 [5]: > 100 µM; GI50 [6]: > 100 µM; GI50 [7]: > 100 µM
O=C(Nc1ccc(Cl)cc1)C1C(=O)C(=O)N(c2ccc(Cl)cc2)C1=O (configuration not stated)		> 100 µM	> 100	> 100	> 100	> 100	> 100	> 100	> 100 µM	
C=CC[P@]1(=O)O[C@H](c2ccccc2)[C@H](C)N1C		> 100 µM	> 100	> 100			> 100	> 100		
CCCCCCCCCCCCCP(=O)(O)O		> 100 µM	> 100	> 100	> 100	> 100	> 100	> 100	> 100 µM	
O=C(O)CCCc1ccc2ccc3ccccc3c2c1	> 100 µM									
CN(C)Cc1cc(C(F)(F)F)ccc1C(O)(c1ccccc1)c1ccccc1	33.7 µM									
CN(C)CCC(=O)N1C/C(=C\c2ccc(Cl)c(Cl)c2)C(=O)/C(=C/c2ccc(Cl)c(Cl)c2)C1	0.84 µM	1.66 µM	0.468	1.13	1.59			0.637	2.32 µM	
CNC(=O)OCc1nc(SSC(C)(C)C)n(C)c1COC(=O)NC	6.59 µM	21.2 µM	3.18	13.6	25.6	3.42	4.15	2.74	5.47 µM	TGI [10]: > 28.2 µM; TGI [11]: > 100 µM
COc1ccc(C=O)cc1O[Si](C)(C)C(C)(C)C		> 100 µM	> 100	> 100	> 100		> 100	> 100		
N#CCC(=O)N/N=C1/C(=O)N(c2ccc(Cl)cc2)C(=O)C(=O)C1c1nc2ccccc2s1 (configuration not stated)		> 100 µM	> 100	> 100	> 100		> 100	> 100	> 100 µM	
NC1=NN(c2ccccc2)C(=O)C1C(=O)CCC(=O)Nc1cccc(Cl)c1 (configuration not stated)		> 100 µM	> 100	> 100	> 100		> 100	> 100	> 100 µM	
NC(CCCC(N)P(=O)(O)O)P(=O)(O)O (configuration not stated)		> 100 µM	> 100	> 100		> 100	> 100	> 100		
